# Entries after “also recorded” stand apart in the source; their conditions may differ.
# Tests used:
# [1] = system: LPS mediated PGE-2 production; test: PGE-2 production in LPS treated RAW macrophage cells (ELISA); assay type: cell-based, murine; conditions: 100 μM inhibitor, 100 ng/ml LPS (FIG. 4)
# Protocol: Raw macrophage murine cells were plated at a cell density of 1×10^5 and pre-treated with 100 μM of each of the inhibitors […] for 30 minutes at 37° C. in a humidified 5% CO2 incubator. Raw macrophage cells were then treated with 100 ng/ml of LPS and supernatants were collected after 16 hours at 37° C. in a humidified 5% CO2 incubator and analysed for PGE-2 production. Levels of PGE-2 were measured by ELISA. (CAT # KGE004 R&D Syst).
# [2] = system: Lewis Lung carcinoma cells; test: Subcutaneous LLC1 tumour model with in vivo tautomerase inhibitor treatment; parameters: species or system C57BL/6 mice
# Protocol: Log phase cultures of LLC-1 cells were harvested by trypsinisation and washed three times with sterile phosphate buffered saline (PBS) and resuspended at a cell density of 5×10^5/ml in PBS. Animals were shaved with an electric shaver 24 hours before subcutaneous injection. 5×10^5 Lewis Lung cells were injected subcutaneously into the left flank of C57BL/6 mice of 6-8 weeks. Animals were monitored for the duration of the experiment and tumour measurements were recorded twice weekly with a digital callipers. Tumour volume (mm^3) was calculated as 0.5×L×W^2, where length is representative of the larger tumour diameter and the width represents the smaller tumour diameter. Animals are sacrificed when tumours reach a diameter of 15 mm or if tumours become ulcerated. Tumours are then removed along with the lungs, spleen and liver.
# 30 minutes prior to LLC-1 inoculation, inhibitors (TI 19/ISO-1) were administered at a concentration of 35 mg/kg in a volume of 100 μl 5% DMSO in sterile PBS. Control groups were given injections of vehicle 5% DMSO in sterile PBS or sterile PBS alone. Animals were treated twice weekly for four weeks.
# In order to assess the antitumour activity of the novel tautomerase inhibitors in vivo, a subcutaneous LLC-1 cell model was set up. The subcutaneous model was chosen so that tumours could be easily visualised and measured during the course of the experiment and to allow assessment of the growth of the tumour in real time. Lewis Lung carcinoma cells (5×10^5) were injected sub-cutaneously into the left flank of C57BL/6 mice. Caliper measurements were taken twice weekly and tumour volume (mm^3) was calculated as 0.5×L×W^2. […] The cut off point for this model was when the tumour measured 15 mm in diameter. This model gave us an indication of normal tumour growth in this subcutaneous model. It can be seen from this model that from day 22 to day 28 the size of the tumour grows considerably.
# Once it was determined that the enzymatic activity played a role in the growth of tumours, the subcutaneous LLC model was then used to assess the efficiency of the small weight molecular inhibitors. C57/B16 mice were injected intraperitoneally with 35 mg/kg of each of the inhibitors 30 minutes prior to subcutaneous tumour inoculation and again twice weekly for 4 weeks. Animals were monitored daily and tumour measurements taken until the tumour measured 15 mm in diameter.
# [3] = system: Lewis Lung carcinoma cells (LLC); test: LLC-GLuc proliferation assay with rMIF; assay type: cell-based, mouse; conditions: 100 μM inhibitor, 100 ng/ml rMIF, 48 hours (FIG. 5)
# Protocol: LLC-GLuc cells were plated in a 6 well plate at a density of 5×10^4 cells/ml in DMEM supplemented with P/S, 10% FCS and L-Glu. After overnight adherence, 100 ng/ml MIF was added along with the inhibitors or DMSO to a total of 1 ml serum free medium. Cells were harvested after 48 hours by trypsinisation and counted in a haemocytometer.
# The ability of candidate compounds to reduce cellular proliferation was also examined. For this assay, LLC cells were plated at a cell density of 5×10^4 cells/ml. The cells were then pre-treated with TI 19 or ISO-1 at a concentration of 100 μM. The cells were then treated with 100 ng/ml of recombinant MIF. The cells were incubated at 37° C. in a humidified 5% CO2 incubator and after 48 hours the cells were harvested and counted.
# [4] = system: LPS induced TNF-α production; test: Inhibition of LPS induced TNF-α production in RAW 264.7 macrophage cells (ELISA); assay type: cell-based, mouse
# Protocol: RAW 264.7 macrophage cells were plated at 1×10^5/ml in 450 μl of medium in a 48 well plate. 16 hours later cells were treated with ISO-1 or Tautomerase Inhibitors at a final concentration of 10, 50 or 100 μM for 30 minutes before stimulation with 100 ng/ml LPS. Supernatants were collected after 20 hours for determination of TNF-α levels. TNF-α levels were determined using a TNF-α specific ELISA (CAT # DY410 R&D Syst).
# 96 well plates were coated with 50 μl of Capture Antibody ([…]) in PBS and sealed and incubated overnight at 4° C. Plates were then washed three times in 0.05% PBS Tween and plates blotted. Plates were blocked by adding 150 μl of 1% BSA in PBS (Gibco—cat no. 14190-094) to each well and incubated at room temperature for 2 hours. Plates were washed again as previously described. 50 μl of sample or standard was added to each well and incubated for overnight at 4° C. Plates were then washed again as described. 50 μl of the detection Antibody (200 ng/ml) in 1% BSA in PBS was added to each well and incubated for 2 hours at room temperature. Plates were then washed again as described. 50 μl of working concentration of Streptavidin—HRP was added to each well and plates were covered and incubated for 20 minutes at room temperature. 50 μl of substrate solution (One OPD tablet and one urea hydrogen peroxide/buffer tablet were dissolved in 20 ml of water to yield a ready to use buffered solution, Sigma—cat no. 9187-50) was added to each well and incubated for 20 minutes at room temperature. 25 μl of 2N H2SO4 was added to each well to stop the reaction. The optical density of each well was then measured with a spectrophotometer at 450 nm.
# Initially the panel of 25 novel potential tautomerase inhibitors was screened in an in-vitro system. In order to do this we exploited the fact that MIF is needed for optimal LPS induced TNF-α production. We therefore reasoned that our potential TIs should be able to inhibit LPS induced TNF-α in RAW macrophage murine cells. RAW macrophage murine cells were plated at 37° C. in a humidified 5% CO2 incubator. 16 hours later the cells were pre-treated with each of the inhibitors at concentration of 100, 50 or 10 μM for 30 minutes 100 ng/ml of LPS was then added to the cells and supernatants were collected after 16 hours and analysed for TNF-α production by ELISA.
structure (smiles),measurement,setting,value
Cc1ccccc1-c1cc2ccccc2c(=O)o1 [TI 19],"reduction of LPS mediated PGE-2 production, in words",[1],significantly reduces; also recorded: greater reduction in PGE-2 than ISO-1; also recorded: reduced PGE-2 levels to comparable levels in untreated cells
same,tumour volume,[2]; 35 mg/kg intraperitoneally 30 min prior to inoculation and twice weekly (FIG. 8),116.1±30.41 mm^3
same,"reduction in tumour size, in words","[2]; 35 mg/kg intraperitoneally, versus untreated or vehicle (DMSO) group (FIG. 8)",significant reduction in tumour size; also recorded: significant reduction in tumour volume
same,effectiveness in reducing tumour size relative to ISO-1,[2]; at 28 days,approximately twice as effective
same,"reduction of MIF induced proliferation, in words",[3],inhibited significantly; also recorded: reduced proliferation to levels comparable with untreated cells; also recorded: reduced cell proliferation
same,"reduction of TNF-α production, in words",[4]; 10 μM inhibitor (FIG. 2C),more effective than ISO-1
same,"reduction of TNF-α production, in words",[4]; 50 μM inhibitor (FIG. 2B),more effective than the commercial standard ISO-1
same,"reduction of TNF-α production, in words",[4]; concentration not given,more effective at reducing TNF-α than the commercially available ISO-1; also recorded: reduction in TNF-α production

# From US10106519B2, “3-phenyl-7-hydroxy-isocoumarins as macrophage migration inhibitory factor (MIF) inhibitors” (The Provost, Fellows, Foundation Scholars, & the Other …, priority 2014, dated 2018)
